The source of these data is PMC8448514, “Exploratory comparisons between different anti-mitotics in clinically-used drug combination in triple negative breast cancer” (Oncotarget, 2021).

Series [1] concerns breast cancer. The settings on record: cited from earlier work.
The subject of series [2] is Balb-c/nude mice. The series is described as follows: Behavioral observation (motor capacity, peripheral neuropathy). It is filed as in vivo. The conditions noted are these: a few minutes after administration; paclitaxel 10 or 20 mg/Kg, 4bt 80 mg/Kg; monotherapy and drug combination.
Method: (§2) Animals of all experimental groups were monitored with regards to their weight, behavior and clinical aspects. Animals body weight were assessed prior the beginning of treatment and twice a week throughout the experiment period as an important indicator of toxicity.
The nature of series [3]: Body weight and clinical monitoring.
Method: as §2
All treatments were administered intraperitoneally (i.p) (Figure 7).
Animal weight was also monitored with help of a digital scale twice a week.
Series [4] relates to ALDH1-A1. In words: ALDH1-A1 immunohistochemistry of tumor sections. It is filed as in vivo, mice. The conditions noted are these: 4bt, 4bc 80 mg/Kg, paclitaxel 20 mg/Kg; vs vehicle. The source says:
After acquisition, images were submitted to a semi-quantitative analysis using the IHC Profiler plug-in (National Institute of Health) from ImageJ software. Images were submitted to a deconvolution process, and histogram profiles, corresponding to pixel intensity as well as a stain-positivity percentage value derived from a scoring system based on optical density, were automatically generated. Areas rated as highly positive or positive were considered for analysis.
In order to evaluate the role of KIF-11 inhibitors in some key features for tumor progression and development, we analyzed tumor sections for the levels of KIF-11, ALDH1-A1 and Ki67 expression by immunofluorescence (IF) or immunohistochemistry. Immunostaining was performed on 5 μm sections of formalin-fixed paraffin-embedded (FFPE) tissue. […]
(§1) Slides were then washed in PBS/0.025% Triton, incubated at room temperature in the dark with (1:500) Alexa Fluor 488-Anti-rabbit secondary antibody, for KIF-11 and Ki67, or (1:250) Goat anti-rabbit HRP, for ALDH1-A1 for 1 hour, washed three times with PBS. […] Slides for ALDH1-A1 analysis were counterstained with hematoxylin and analyzed under light microscope Axiovert (Zeiss, Germany).
For ALDH1-A1 quantification of positive areas, IHC Profiler plug-in was used as previously described for TUNEL analysis.

In series [5] the test system is Balb-c nude mice bearing breast tumor. In words: Biochemical analysis of blood (liver and kidney toxicity). It is filed as in vivo. The settings on record: 20 mg/kg i.p., monotherapy.
Series [6] shares this test system. In words: Red blood cell analysis (complete blood count). It is filed as in vivo. The settings on record: 20 mg/kg i.p., monotherapy; mean ± SEM.
The test system of series [7] is intratumoral necrotic area of MDA-MB-231 tumor. The series is described as follows: Histopathological analysis of tumor sections (H&E). It is filed as in vivo, mice. The settings on record: monotherapy; 4bt, 4bc 80 mg/Kg, paclitaxel 20 mg/Kg; vs vehicle. The procedure:
Tumors and lungs were fixed in 10% buffered formalin and processed for paraffin embedding. Processed material was sectioned at 5 μm, and sections were stained with hematoxylin & eosin (HE) for analysis under the light microscope Axiovert (Zeiss, Germany). Tumor and lung sections were analyzed for general histopathological assessment.

The subject of series [8] is Balb-c nude mice bearing breast tumor. In words: White blood cell and platelet analysis (complete blood count). It is filed as in vivo. The settings on record: 20 mg/kg i.p., monotherapy, mean ± SEM.
Series [9] relates to KIF11. In words: Intratumoral KIF11 expression by immunofluorescence. It is filed as in vivo, mice. The settings on record: 4bt, 4bc 80 mg/Kg; paclitaxel 20 mg/Kg; AC-T; AC-4bt; vs vehicle. On the procedure:
In order to evaluate the role of KIF-11 inhibitors in some key features for tumor progression and development, we analyzed tumor sections for the levels of KIF-11, ALDH1-A1 and Ki67 expression by immunofluorescence (IF) or immunohistochemistry. Immunostaining was performed on 5 μm sections of formalin-fixed paraffin-embedded (FFPE) tissue. Tissue slides were baked, deparaffinized in xylene and passed through graded alcohols for rehydration. Antigen retrieval was achieved submitting samples to a 10 mM Trisodium Citrate solution, pH 6.0 in a steam pressure cooker at 100°C for 10 minutes. Slides were then left immersed in the Trisodium Citrate solution at room temperature for 20 minutes before being washed with PBS/0.025% Triton. The area around each section was delimited by a hydrophobic liquid blocker (PAP-Pen) in order to assure homogeneous distribution of reagents and antibodies.
as §1

The subject of series [10] is tumor cell apoptosis. In words: TUNEL assay for apoptosis in tumor sections. It is filed as in vivo, mice. The settings on record: paclitaxel 20 mg/Kg; AC-T; AC-4bt; vs vehicle. The procedure: The level of apoptosis in tumor sections was determined by TUNEL assay. TUNEL staining was performed on paraffin-embedded sections using Click-iT™ TUNEL Colorimetric IHC Detection Kit (Invitrogen, Carlsbad – USA) according to the manufacturer’s protocol. Briefly, the sections were dewaxed, rehydrated, and immersed in 4% paraformaldehyde fixative solution for 15 minutes. They were then washed and incubated with proteinase K for 20 min at room temperature. The slides were washed with PBS for 5 minutes, and immersed in 4% paraformaldehyde fixative solution again for 5 minutes at room temperature. Slides were then washed with PBS (twice, for 5 minutes) and rinsed with deionized water. Samples were incubated in TdT Reaction Buffer for 10 minutes at 37°C. The TdT reaction buffer was gently removed using paper towels and slides were incubated with TdT Reaction Mixture for another hour at 37°C in a humidified chamber. After being rinsed with PBS, slides were immersed in 2X SSC for 15 minutes, in order to fully quench TdT reaction. Slides were washed with 1X Click-iT™ TUNEL Colorimetric Wash solution and incubated with the Click-iT™ TUNEL Colorimetric Reaction cocktail for 30 minutes at 37°C, protected from light. […]
After acquisition, images were submitted to a semi-quantitative analysis using the IHC Profiler plug-in (National Institute of Health) from ImageJ software. […]

Series [11] concerns breast cancer induced by MDA-MB-231. The series is described as follows: Tumor volume monitoring in xenograft model. It is filed as in vivo, mice. The settings on record: used in combination with doxorubicin 10 mg/Kg and cyclophosphamide 100 mg/Kg; 4bt 80 mg/Kg, paclitaxel 10 mg/Kg. The procedure: Mice were anesthetized with ketamine (80 mg/kg of body weight) and xylazine (20 mg/kg of body weight) solution. 2 × 10^6 MDA-MB-231 cells in PBS/20% type I Collagen (100 μL) were inoculated in the fourth right mammary fat pad. After tumor establishment, about 5 weeks after inoculation, mice were randomized into experimental groups (n = 5 per group), and treatment started.

Molecules are shown by their SMILES.

Turning to `Cc1ccc(C(=O)N(CCCN)[C@@H](c2nc3cc(Cl)ccc3c(=O)n2Cc2ccccc2)C(C)C)cc1` [Ispinesib], the Neurotoxicity / tolerability result in [1] (clinical) is “no indication of neurotoxicity”. Also, the “Antitumor activity in phase I trial” value in series [1] (phase I trial in breast cancer) is “relevant antitumor activity and stabilization of the disease”.
Turning to `CC(=O)O[C@H]1C(=O)[C@@]2(C)[C@H]([C@H](OC(=O)c3ccccc3)[C@]3(O)C[C@H](OC(=O)[C@H](O)[C@@H](NC(=O)c4ccccc4)c4ccccc4)C(C)=C1C3(C)C)[C@]1(OC(C)=O)CO[C@@H]1C[C@@H]2O` [Paclitaxel, paclitaxel], in series [2], the “Motor capacity / behavioral changes” value is given as “reduced motor capacity”. Moreover, the Body weight change entry in series [3] (cycles of paclitaxel 10 mg/Kg or 4bt 80 mg/Kg after AC) was “did not cause any further reduction”. Also, in series [3] (monotherapy, 4bt and 4bc 80 mg/Kg, PTX 20 mg/Kg, 1 week after the beginning of treatment, no significant change afterwards), the Body weight change result was “weight reduction”. Moreover, the ALDH1-A1 expression change result in series [4] is listed as “didn’t cause significant changes in ALDH1-A1 expression”. For the same molecule, the Creatinine in [5] was < 0,2 mg/dL. For the same molecule, in series [5] (mean ± SEM), the “ALP (alkaline phosphatase)” value stood at 86.50 ± 10.5 U/L, the “ALT (alanine transaminase)” value was 21.50 ± 1.50 UI/L, the “AST (aspartate aminotransferase)” value worked out at 98.50 ± 21.50 UI/L and the “GGT (gamma-glutamyl transferase)” value is on record as less than 1 U/L. In addition, in [5] (mean ± SEM), the “LDH (lactate dehydrogenase)” value amounted to 464.50 ± 50.5 U/L and the Urea stood at 59.00 ± 2.00 mg/dL. Also, in [6], the Hematocrit was determined as 42.56 ± 0.62 %, the Hemoglobin is recorded as 12.80 ± 0.14 g/dL, the “MCH (mean corpuscular hemoglobin)” value is recorded as 15.73 ± 0.05 pg and the “MCHC (mean corpuscular hemoglobin concentration)” value is recorded as 30.07 ± 0.12 g/dL. Moreover, in [6], the “MCV (mean corpuscular volume)” value turned out to be 52.23 ± 0.42 fL, the “RDW (red cell distribution width)” value is on record as 22.85 ± 0.98 % and the Red cells is reported as 8.15 ± 0.08 10^6/mm^3. In series [7], the Intratumoral necrotic area entry is on record as “reduction in the size of necrotic area”. Also, in series [8], the “Basophils (%)” value is 2 ± 1.25%, the “Basophils (Abs)” value came to 42.79 ± 22.69, the “Eosinophils (%)” value was 0.00% and the “Eosinophils (Abs)” value is 0.00. Also, in [8], the “Lymphocytes (%)” value came to 78.63 ± 2.36%, the “Lymphocytes (Abs)” value came out at 1682.24 ± 602.57, the “MPV (mean platelet volume)” value is 7.07 ± 0.12 fL and the “Monocytes (%)” value was 4.79 ± 3.74%. Besides, in series [8], the “Monocytes (Abs)” value came out at 102.51 ± 65.75, the “Neutrophils (%)” value is recorded as 12.07 ± 5.10%, the “Neutrophils (Abs)” value stood at 258.30 ± 103.76 and the Platelets was 1070.01 ± 37.28 10^3/mm^3. The “WBC (white blood cells)” value in series [8] is given as 2139.39 ± 684.75. The “WBC (white blood cells)” value in [8] (listed as paclitaxel) was determined as 2139.39 ± 684.75. Moreover, the “Intratumoral KIF11 expression” value in series [9] was “didn’t cause any change on KIF11 levels”. Further, the “TUNEL positive area staining (apoptotic activity)” value in series [10] was “substantially increase positive area staining”. The Tumor volume result in series [11] was “significantly decreasing the tumor volume”.
